Data taken from patent US8710088B2, “Pharmaceutical and diagnostic compositions for use in the treatment and diagnosis of neurodegenerative diseases or amyloid diseases” (Max-Delbruck-Centrum fur Molekulare Medizin, priority 2004, dated 2014).

Experiments:
[1] = target: T1, wild type Aβ1-42 (Homo sapiens, UniProt P05067); assay: aggregation assay with wild type Aβ1-42, membrane filter method; assay type: biochemical; conditions: peptide 15 μM, pH 7.4, 42 h, 37° C.
T1 construct: non-mutated (wild type) Aβ1-42
T1 sequence (P05067 672-713 limits assumed): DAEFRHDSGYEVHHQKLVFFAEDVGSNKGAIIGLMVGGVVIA
Method: Analogously, the compounds were also examined in aggregation assays with the amyloid β-peptide Aβ1-42(E22Q), which is a particularly rapidly aggregating variant of amyloid β, as well as with non-mutated (wild type) Aβ1-42. For this purpose, the peptide was incubated at a concentration of 15 μM in a phosphate buffer with a physiological pH value of 7.4 for 42 h at 37° C. and subsequently, aliquots were examined by means of the membrane filter method (Figure) or electron microscopy (Figures) as well. […] Cell viability measurements were carried out in neuronally differentiated PC12 cells to which beta-amyloid and the substances to be tested were added extracellularly in order to examine whether the compounds are able to reduce toxicity caused by amyloid-beta. After 48 h the viability of the cells (approximately corresponds to the number of vital cells) was measured.

[2] = system: huntingtin-Exon-1 with 103 glutamines (Htt103Q-EGFP); assay: stably transfected PC12 cell line with inducible Htt103Q-EGFP, membrane filter test; assay type: cell-based; conditions: muristerone induced, 44 h, membrane filter method
Method: The compounds were additionally tested in a stably transfected PC12 cell line. This cell line was transfected with an ecdysone-inducible plasmid whose N-terminal codes for huntingtin-Exon-1 marked with GFP with 103 glutamines (Htt103Q-EGFP). The Htt103Q-EGFP expression was induced with muristerone and the cells were subsequently cultivated for 44 h in the presence of solvents or the chemical agents. Subsequently, the amount of aggregate was determined with the help of the membrane filter test as described by Heiser et al. (2002). Furthermore, the amount of aggregate was determined with the help of a fluorescence measurement (data not shown). […] The latter could be deduced from the total amount of protein in the cell lysate (FIG. 2B) which was determined with the help of cell extracts.

[3] = target: T2, huntingtin (Homo sapiens, UniProt P42858, INS38QQQQQQQQQQQQQQQQQQQQQQQQQQQQQQ); assay: cell culture model of Huntington's chorea: COS1 cells transfected with pTL1-CAG51, membrane filter test; assay type: cell-based; conditions: 40-44 h, membrane filter method
T2 construct: expressed in transfected cells; host or cells: COS1 cells, transient transfection
T2 sequence (P42858 with tags, fused parts or gaps with the stated changes limits assumed): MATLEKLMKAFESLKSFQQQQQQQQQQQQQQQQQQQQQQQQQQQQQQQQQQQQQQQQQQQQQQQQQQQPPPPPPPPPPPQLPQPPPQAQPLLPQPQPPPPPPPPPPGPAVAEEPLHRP
Method: The compounds were then tested in several cell culture models of polyglutamine diseases, inter alia Huntington's chorea. For this purpose, COS1 cells were transiently transfected with the plasmid pTL1-CAG51 already described above (Sittler, A., Walter, S., Wedemeyer, N., Hasenbank, R., Scherzinger, E., Eickhoff, H., Bates, G. P., Lehrach, H. and Wanker, E. E. (1998) Mol Cell 2, 427-36) and cultivated for 44 h in the presence of solvents or the chemical agents. Subsequently, the amount of aggregate was determined with the help of the membrane filter test as described by Heiser et al. (2002). […] The latter could be deduced from the total amount of protein in the cell lysate (FIG. 2B) which was determined with the help of cell extracts.
7-Amino-8-(2,4-dihydroxy-6-methyl-phenyl)-1,9-dimethyl-phenoxazine-3-one was then tested in a cell culture model of Huntington's chorea. For this purpose, COS1 cells were transiently transfected with the plasmid pTL1-CAG51 already described above (Sittler, A., Walter, S., Wedemeyer, N., Hasenbank, R., Scherzinger, E., Eickhoff, H., Bates, G. P., Lehrach, H. and Wanker, E. E. (1998) Mol Cell 2, 427-36) and cultivated for 40-44 h in the presence of solvents or 7-amino-8-(2,4-dihydroxy-6-methyl-phenyl)-1,9-dimethyl-phenoxazine-3-one. Subsequently, the amount of aggregate was determined with the help of the membrane filter test as described by Heiser et al. (2002). […] The latter could be deduced from the total amount of protein (FIG. 2B) which was determined with the help of cell extracts.

[4] = target: T3, mutant huntingtin (GST fusion protein GST-HDQ51) (Homo sapiens, UniProt P42858, INS38QQQQQQQQQQQQQQQQQQQQQQQQQQQQQQ); assay: in vitro aggregation of mutant huntingtin, membrane filter test; assay type: biochemical; conditions: membrane filter method
T3 construct: GST (N)
T3 sequence (P42858 with tags, fused parts or gaps with the stated changes limits assumed): as the sequence (P42858 with tags, fused parts or gaps with the stated changes limits assumed) above
Method: As in the tests described by Heiser et al. (2002), the protein was used for aggregation tests to which either only solvent or solvent and the chemical agent in question was added. Aliquots of these batches were examined by means of the membrane filter test and electron microscopy.
As in the tests described by Heiser et al. (2002), the protein was used for aggregation tests to which either only solvent or solvent and 7-amino-8-(2,4-dihydroxy-6-methyl-phenyl)-1,9-dimethyl-phenoxazine-3-one was added. Aliquots of these batches were examined by means of the membrane filter test (FIG. 1B) and electron microscopy (FIGS. 1E and 1F).

[5] = system: alpha-synuclein; assay: alpha-synuclein amyloid fibril formation, electron microscopy; assay type: biochemical; conditions: wild type protein or mutant (A53T)
Description: For this purpose, the wild type protein or a mutant (A53T) was used.

[6] = target: amyloid-beta fibrils (Homo sapiens, UniProt P05067); assay: binding to amyloid-beta aggregates located on a cellulose acetate membrane; conditions: colored substances
Sequence of amyloid-beta fibrils (P05067 672-713 limits assumed): as the sequence (P05067 672-713 limits assumed) above
Description: FIG. 16: Binding to amyloid-beta aggregates located on a cellulose acetate membrane

For `CC1=Nc2cccc3cccc(c23)N1C` [1,2-dimethyl-1H-perimidine], the “Inhibition of the aggregation of wild type Aβ1-42 (SDS-insoluble aggregates)” value [1] was “Inhibition of the aggregation”.

In the case of `Cc1cc(=O)cc2oc3cccc(C)c3nc1-2` [1,9-dimethyl-phenoxazine-3-one], the “Inhibition of the aggregation of wild type Aβ1-42 (SDS-insoluble aggregates)” value [1] is reported as “Inhibition of the aggregation”.

In the case of `S=C1Nc2cccc3cccc(c23)N1` [1H,3H-perimidine-2-thione], the “Inhibition of the aggregation of wild type Aβ1-42 (SDS-insoluble aggregates)” value [1] is reported as “Inhibition of the aggregation”.

In the case of `c1cc2c3c(cccc3c1)NC(c1c[nH]cn1)=N2` [2-(1H-imidazole-4-yl)-1H-perimidine, 2-(1H-Imidazole-4-yl)-1H-perimidine], the “Inhibition of the aggregation of wild type Aβ1-42 (SDS-insoluble aggregates)” value [1] is reported as “Inhibition of the aggregation”.

In the case of `CN(C)CCCNc1nc2c(ccc3[nH]c(=O)c(C#N)cc32)s1` [2-(3-dimethylamino-propylamino)-7-oxo-6,7-dihydro-thiazolo[4,5-f]quinoline-8-carbonitrile], the “Inhibition of the aggregation of huntingtin (Exon-1) in mammalian cells” value (shortened to “Inhibition … (Exon-1) in mammalian cells”) [2] is reported as “Inhibition of the aggregation”.

`N#Cc1cc2c(ccc3sc(N)nc32)[nH]c1=O` [2-Amino-7-oxo-6,7-dihydro-thiazolo[4,5-f]quinoline-8-carbonitrile] was tested, and the “Inhibition … (Exon-1) in mammalian cells” value [2] was “Inhibition of the aggregation”.

In the case of `COC(=O)C1CC2=C(Cc3ccccc32)CN1c1ccco1` (centres unmarked) [2-Furan-2-yl-2,3,4,9-tetrahydro-1H-indenol[2,3-c]pyridine-3-carboxylic acid methyl ester], the “Inhibition of the aggregation of wild type Aβ1-42 (SDS-insoluble aggregates)” value [1] is reported as “Inhibition of the aggregation”.

In the case of `CCN(CC)CCN(CC)c1nc2c(ccc3[nH]c(=O)c(C#N)cc32)s1` [2-[(2-diethylamino-ethyl)-ethyl-amino]-7-oxo-6,7-dihydro-thiazolo[4,5-f]quinoline-8-carbonitrile], the “Inhibition … (Exon-1) in mammalian cells” value [2] is reported as “Inhibition of the aggregation”.

For `CN(C)CCN(Cc1ccccc1)c1nc2c(ccc3[nH]c(=O)c(C#N)cc32)s1` [2-[Benzyl-(2-dimethylamino-ethyl)-amino]7-oxo-6,7-dihydro-thiazolo[4,5-f]quinoline-8-carbonitrile], the “Inhibition … (Exon-1) in mammalian cells” value [2] was “Inhibition of the aggregation”.

`Cc1ccc(C2=Nc3cccc4cccc(c34)N2)cc1` [2-p-tolyl-1H-perimidine] was tested, and the “Inhibition of the aggregation of wild type Aβ1-42 (SDS-insoluble aggregates)” value [1] was “Inhibition of the aggregation”.

With `c1cncc(C2=Nc3cccc4cccc(c34)N2)c1` [2-pyridine-3-yl-1H-perimidine] the “Inhibition of the aggregation of wild type Aβ1-42 (SDS-insoluble aggregates)” value [1] was “Inhibition of the aggregation”.

In the case of `C1=CC2=Nc3ccccc3OC2=CC1` [3H-phenoxazine, 3H-Phenoxazine], the “Inhibition of the aggregation of huntingtin in mammalian cells” value [3] is reported as “Inhibition of the aggregation”.

`N#Cc1ccc(C2=Nc3cccc4cccc(c34)N2)cc1` [4-(1H-perimidine-2-yl)-benzonitrile] was tested, and the “Inhibition of the aggregation of wild type Aβ1-42 (SDS-insoluble aggregates)” value [1] was “Inhibition of the aggregation”.

For `CCOC(=O)C(CC(C)C)c1nc(-c2ccccc2)ns1` (centres unmarked) [4-methyl-2-(3-phenyl-[1,2,4]thiadiazole-5-yl)-pentanoic acid ethyl ester], the “Inhibition of the aggregation of huntingtin in mammalian cells” value [3] was “Inhibition of the aggregation”.

`O=C(Nc1nccs1)c1ccc(-c2ccc(C(=O)Nc3nccs3)o2)cc1` [5-[4-(Thiazole-2-ylcarbamoyl)-phenyl]-furan-2-carboxylic acid thiazole-2-ylamide] was tested, and the “Inhibition of the aggregation of huntingtin in mammalian cells” value [3] was “Inhibition of the aggregation”.

With `N#Cc1cc2c(ccc3sc(NCCN4CCCCC4)nc32)[nH]c1=O` [7-Oxo-2-(2-piperidine-1-yl-ethylamino)-6,7-dihydrothiazolo[4,5-f]quinoline-8-carbonitrile] the “Inhibition … (Exon-1) in mammalian cells” value [2] was “Inhibition of the aggregation”.

`Cc1cc(=O)cc2oc3cc(N)cc(C)c3nc1-2` [7-amino-1,9-dimethyl-phenoxazine-3-one] was tested, and the “Inhibition of the aggregation of huntingtin in mammalian cells” value [3] was “Inhibition of the aggregation”.

With `Cc1cc(=O)cc2oc3cc(O)cc(C)c3nc1-2` [7-hydroxy-1,9-dimethyl-phenoxazine-3-one] the “Inhibition of the aggregation of wild type Aβ1-42 (SDS-insoluble aggregates)” value [1] was “Inhibition of the aggregation”.

`CN1C(CO)=Nc2cccc3cccc1c23` [(1-methyl-1H-perimidine-2-yl)-methanol] was tested, and the “Inhibition of the aggregation of huntingtin (Exon-1) (SDS-insoluble aggregates)” value [4] was “Inhibition of the aggregation”.

For `O=C(O[C@@H]1Cc2c(O)cc(O)cc2O[C@H]1c1cc(O)c(O)c(O)c1)c1cc(O)c(O)c(O)c1` [GCG, (−)-Gallocatechin gallate], the “Inhibition of the aggregation of alpha-synuclein (amyloid fibrils)” value [5] was “Inhibition of the aggregation”.

In the case of `CC(=O)N(CCN(C)C)c1nc2c(ccc3[nH]c(=O)c(C#N)cc32)s1` [N-(8-Cyano-7-oxo-6,7-dihydro-thiazolo[4,5-f]quinoline-2-yl)-N-(2-dimethylamino-ethyl)-acetamide], the “Inhibition … (Exon-1) in mammalian cells” value [2] is reported as “Inhibition of the aggregation”.

For `CN(C)CCN(C=O)c1nc2c(ccc3[nH]c(=O)c(C#N)cc32)s1` [N-(8-Cyano-7-oxo-6,7-dihydro-thiazolo[4,5-f]quinoline-2-yl)-N-(2-dimethylamino-ethyl-formamide], the “Inhibition … (Exon-1) in mammalian cells” value [2] was “Inhibition of the aggregation”.

For `CN(C)CCCN(C=O)c1nc2c(ccc3[nH]c(=O)c(C#N)cc32)s1` [N-(8-Cyano-7-oxo-6,7-dihydro-thiazolo[4,5-f]quinoline-2-yl)-N-(3-dimethylamino-propyl)-formamide], the “Inhibition … (Exon-1) in mammalian cells” value [2] was “Inhibition of the aggregation”.

For `Cc1cc(O)cc(O)c1-c1c(N)cc2oc3cc(=N)c(-c4c(C)cc(O)cc4O)c(C)c-3nc2c1C` [beta-amino-orceimine], the “direct binding to amyloid-beta fibrils” value [6] was “bind directly to amyloid-beta fibrils”.

In the case of `Cc1cc(O)cc(O)c1-c1c(N)cc2oc3cc(=O)c(-c4c(C)cc(O)cc4O)c(C)c-3nc2c1C` [beta-amino-orcein], the “direct binding to amyloid-beta fibrils” value [6] is reported as “bind directly to amyloid-beta fibrils” and the “Inhibition of the aggregation of huntingtin in mammalian cells” value [3] is reported as “Inhibition of the aggregation”.

`Cc1cc(O)cc(O)c1-c1c(O)cc2oc3cc(=O)c(-c4c(C)cc(O)cc4O)c(C)c-3nc2c1C` [beta-hydroxy-orcein] was tested, and the “direct binding to amyloid-beta fibrils” value [6] was “bind directly to amyloid-beta fibrils” and the “Inhibition of the aggregation of wild type Aβ1-42 (SDS-insoluble aggregates)” value [1] was “Inhibition of the aggregation”.

In the case of `O=c1ccc2nc3ccccc3oc-2c1` [phenoxazin-3-one], the “Inhibition of the aggregation of huntingtin in mammalian cells” value [3] is reported as “Inhibition of the aggregation”.

For `c1ccc2c(c1)Nc1ccccc1O2` [phenoxazine], the “direct binding to amyloid-beta fibrils” value [6] was “bind directly to amyloid-beta fibrils”.

In the case of `O=c1ccc2nc3ccccc3oc-2c1` [phenoxazone], the “direct binding to amyloid-beta fibrils” value [6] is reported as “bind directly to amyloid-beta fibrils”.

For alpha-amino-orceimine, the “direct binding to amyloid-beta fibrils” value [6] was “bind directly to amyloid-beta fibrils”.

For alpha-hydroxy-orcein, the “direct binding to amyloid-beta fibrils” value [6] was “bind directly to amyloid-beta fibrils” and the “Inhibition of the aggregation of huntingtin in mammalian cells” value [3] was “Inhibition of the aggregation”.

With gamma-amino-orcein the “direct binding to amyloid-beta fibrils” value [6] was “bind directly to amyloid-beta fibrils”.
